Results on 5 compounds are retold here after US12264173B2 (GILEAD SCIENCES, INC., priority 2020, dated 2025).

What all share (assay type): cell-based
The subject of one assay is RSV A2. Put plainly: RSV NHBE EC50 (RSV A2 antiviral assay in NHBE cells). The note with it: human respiratory syncytial virus, NHBE, 96 h, Table 3; NHBE cells, RSV A2, 4 days; read-out: RSV NHBE EC50. The essentials:
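NHBE cells (7,500/well, passage ≤6) given 3-fold serially diluted compound (0.05% DMSO final), then infected with RSV A2 at 1×10^4.5 tissue culture infectious doses/mL. After 4 days at 37 °C, viability measured by CellTiter-Glo luminescence at 25 °C.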

A further assay has as its system RSV strain A2. The assay is described as follows: microbe, parasite or virus in culture. The note with it: human respiratory syncytial virus, HEp-2, 96 h, Table 3; HEp-2 cells, RSV A2, 4 days; read-out: RSV HEp-2 EC50. A digest of the protocol:
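Cytopathic-effect protection assay: HEp-2 cells (50,000/mL) infected with pre-titered RSV A2 onto 3-fold serial compound dilutions, incubated 4 days at 37° C. Cell viability read by CellTiter-Glo luminescence; percent inhibition derived against 0% and 100% virus-inhibition controls.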

Another assay concerns DENV2 replicon. The assay is described as follows: DENV-2 Huh-7 Rep EC50 (replicon luminescence). The settings on record: Dengue virus, DENV2, Huh-7, 48 h. The method, then:
In 384 well plates (Greiner, Cat #781091), compounds were acoustically transferred at 200 nl per well in a 8 compound (4 replicates) or 40 compound dose response format (3 replicates). For all plates tested, Balapiravir, GS-5734 and NITD008 were included as positive inhibition controls alongside 0% inhibition, DMSO-only negative control wells. Following compound addition, Huh-7 cells containing the DENV2 replicon construct were harvested following standard cell culture procedures and were adjusted to a concentration of 1.25E5 cells/mL in cell culture media composed of cDMEM without genticin. 40 μL of the cell stock was then added to each well for a final cell density of 5,000 cells/well. Cell and compound mixtures were incubated at 37° C./5% CO2 for 48 hours. Prior to harvesting cells, EnduRen Live Cell Substrate (Promega, Cat #E6481) was prepared by suspending 3.4 mg into 100 uL of DMSO to generate a 60 mM stock solution. The stock solution was then diluted 1:200 in pre-warmed cDMEM and 10 uL of this diluted solution was added to each well of the 384 well plates. Plates were then centrifuged at 500 rpm briefly and were placed on a plate shaker for 2 min. Following mixing, plates were incubated at […] for 1.5 hours prior to measuring luminescence on an Envision luminometer.

Where two headings read alike, the source gives them in different places.

For `CC(C)C(=O)O[C@H]1[C@H](c2ccc3c(N)ncnn23)O[C@](C#N)(COP(=O)(N[C@@H](C)C(=O)OC[C@H]2CC[C@H](N)CC2)Oc2ccccc2)[C@H]1OC(=O)C(C)C` (stereo partly drawn) [Example 207, (2R,3S,4S,5S)-2-((((((S)-1-(((1r,4S)-4-aminocyclohexyl)methoxy)-1-oxopropan-2-yl)amino)(phenoxy)phosphoryl)oxy)methyl)-5-(4-aminopyrrolo[2,1-f][1,2,4]triazin-7-yl)-2-cyanotetrahydrofuran-3,4-diyl bis(2-methylpropanoate)], the values for the EC50 in the assay on RSV A2, in the assay on RSV strain A2 and in the assay on DENV2 replicon (read-out: DENV-2 REP Huh7 EC50) were 149 nM, 1080 nM and over 37500 nM, respectively.
`CC(C)OC(=O)[C@H](C)NP(=O)(OCCS(C)(=O)=O)OC[C@@]1(C#N)O[C@@H](c2ccc3c(N)ncnn23)[C@H](OC(=O)C(C)C)[C@@H]1OC(=O)C(C)C` (stereo partly drawn) [Example 210, (2R,3S,4S,5S)-5-(4-aminopyrrolo[2,1-f][1,2,4]triazin-7-yl)-2-cyano-2-((((((S)-1-isopropoxy-1-oxopropan-2-yl)amino)(2-(methylsulfonyl)ethoxy)phosphoryl)oxy)methyl)tetrahydrofuran-3,4-diyl bis(2-methylpropanoate)]: the EC50 in the assay with RSV A2 was 3420 nM; in the assay on RSV strain A2, 36300 nM; in the assay on DENV2 replicon (read-out: DENV-2 REP Huh7 EC50, Table 3, Huh-7 DENV2 replicon cells, 48 hours) it was over 35400 nM.
Turning to `CC(C)C(=O)O[C@H]1[C@H](c2ccc3c(N)ncnn23)O[C@](C#N)(COP(=O)(N[C@@H](C)C(=O)OC2CCCC2)Oc2ccccc2)[C@H]1OC(=O)C(C)C` (stereo partly drawn) [Example 254, (2R,3S,4S,5S)-5-(4-aminopyrrolo[2,1-f][1,2,4]triazin-7-yl)-2-cyano-2-((((((S)-1-(cyclopentyloxy)-1-oxopropan-2-yl)amino)(phenoxy)phosphoryl)oxy)methyl) tetrahydrofuran-3,4-diyl bis(2-methylpropanoate)], the EC50 with RSV A2 is 24 nM; in the assay on RSV strain A2, 36 nM; in the assay with DENV2 replicon (read-out: DENV-2 REP Huh7 EC50), 29400 nM.
On the same counts, the results for `CC(C)C(=O)O[C@H]1[C@H](c2ccc3c(N)ncnn23)O[C@](C#N)(COP(=O)(N[C@@H](C)C(=O)OC2CC2)Oc2ccccc2)[C@H]1OC(=O)C(C)C` (stereo partly drawn) [Example 255, (2R,3S,4S,5S)-5-(4-aminopyrrolo[2,1-f][1,2,4]triazin-7-yl)-2-cyano-2-((((((S)-1-cyclopropoxy-1-oxopropan-2-yl)amino)(phenoxy)phosphoryl)oxy)methyl) tetrahydrofuran-3,4-diyl bis(2-methylpropanoate)] are 18 nM, 38 nM and 2910 nM.
Consider `COC(=O)[C@H](C)N[P@](=O)(OC[C@@]1(C#N)O[C@@H](c2ccc3c(/N=C/N(C)C)ncnn23)[C@H](OC(=O)C(C)C)[C@@H]1OC(=O)C(C)C)Oc1ccccc1` [Example 260, (2R,3S,4S,5S)-2-Cyano-5-(4-(((E)-(dimethylamino)methylene)amino)pyrrolo[2,1-f][1,2,4]triazin-7-yl)-2-((((S)-(((S)-1-methoxy-1-oxopropan-2-yl)amino)(phenoxy)phosphoryl)oxy)methyl) tetrahydrofuran-3,4-diyl bis(2-methylpropanoate)], for which the 50% effective concentration (EC50) stood at 12 nM with RSV A2, 41 nM in the assay on RSV strain A2 and 2800 nM with DENV2 replicon (read-out: DENV-2 REP Huh7 EC50).

The term EC50 denotes the concentration at which the effect is half-maximal.
